# Results: patent US20250127800A1, “PYRIMIDINE OR PYRIDINE DERIVATIVE AND MEDICINAL USE THEREOF” (SIGNET THERAPEUTICS INC., priority 2021, published 2025)
# Where two headings read alike, the source gives them in different places.
# Experiments:
# FAK = FAK (Homo sapiens (Human), UniProt Q05397); experiment: In vitro enzymatic inhibitory activity, FAK kinase (HTRF KinEASE-TK)
# SNU-668 cells = experiment: Cell proliferation inhibition, SNU-668 (CELL TITER-GLO); format: cell-based; settings: Homo sapiens, SNU668, 96 h; SNU-668, 4 days
# Method: (§1) • a. SNU-668 cells (catalog number: 00668, KCLB) or NUGC4 cells (catalog number: 0834, JCRB) were allowed to grow to 70%-80% confluence, the supernatant of the culture medium was pipetitted off, rinsed once with PBS and then pipetitted off; • b. To a 10 cm dish was added 1 mL of 0.25% trypsin, votexed to homogenity and then place into incubator for digestion for 2-3 min; • c. The culture dish is removed from the incubator added with 2-3 mL complete culture medium to terminate the digestion, pipetitted into a 15 mL centrifuge tube, and then centrifuged in centrifuge at 1000 rpm for 5 minutes; • d. The supernatant was pipetitted off, and the cells were resuspended in 1 mL of complete culture medium, and then counted; • e. 1000 cells were plated into each well of 96-well plate, and then cultured overnight in a cell incubator, 2) Cell Administration with Compounds • a. Compounds to be tested were dissolved and votexed to homogeneity; • b. Each compound was serielly diluted in 1:3 ratio from 1 mM stock solution to 9 gradient concentrations; • c. The plate seeded with cells was taken out from the incubator, pipetitted off culture medium, and then added slowly in each well with 100 μL fresh culture medium by multi-channel pipette. Wells are labeled by corresponding compounds and concentrations, and then gently added with 100 μL compound-containing culture medium along the well wall by multi-channel pipette; • d. After the addition to all wells, the plate was gently shaken to allow homogeneous spread of the compound, and then put back to the incubator, with time recorded;
# (§2) 4 days after the addition of compounds, the culture medium was removed and mixed at 100 μL from each well with cell titer-glo testing liquid in 1:1 ratio. The mixture was incubated with shaking at room temperature for 10 min and then counted with Plate reader.
# NUGC4 cells = experiment: Cell proliferation inhibition, NUGC4 (CELL TITER-GLO); format: cell-based; settings: Homo sapiens, NUGC-4, 96 h; NUGC4, 4 days
# Method: as §1, §2
# [1] = In vivo pharmacokinetic evaluation in SD rats, gavage; settings: rat, plasma, po, male SD rats
# Method: Three male SD rats were administered with compounds in a single dose of 5 mg/kg or 3 mg/kg by gavage, and blood samples were collected before administration and at 0.25, 0.5, 1, 2, 4, 6, 8, and 24 h after administration.
# Preparation of solutions of compounds to be dosed at 5 mg/kg: 5.5 mg compound (converted based on purity) was accurately weighed and added to 0.55 mL of DMSO. Clear solutions were obtained after stirring and sonication. 0.5 mL of each of the above solutions was added with 1 mL of Solutol, stirred for 1 minute; and then added with 8.5 mL of physiological saline and stirred for 1 minute, to obtain a clear solution at 0.5 mg/mL concentration.
# Preparation of a solution of compounds to be dosed at 3 mg/kg: 3.6 mg compound (converted according to purity) was accurately weighed and added to 0.6 mL of DMSO. Clear solutions were obtained after stirring and sonication. 0.5 mL of each of the above solutions was added with 1 mL of Solutol and stirred for 1 minute; and then added with 8.5 mL of physiological saline and stirred for 1 minute, to obtain a clear solution at 0.3 mg/mL concentration.
# Rats were administered the formulations prepared in step 2 by gavage at a dose of 10 mL/kg. The rats were fasted overnight before the administration and resumed feeding 4 hours after administration. Throughout the entire experiment, the animals were free to access drinking water.
# The plasma concentration was measured using LC-MS/MS method.
# [2] = FAK kinase, enzyme pre-incubation 15 minutes at 25° C.
# Sequence of FAK (Q05397 whole entry, species assumed): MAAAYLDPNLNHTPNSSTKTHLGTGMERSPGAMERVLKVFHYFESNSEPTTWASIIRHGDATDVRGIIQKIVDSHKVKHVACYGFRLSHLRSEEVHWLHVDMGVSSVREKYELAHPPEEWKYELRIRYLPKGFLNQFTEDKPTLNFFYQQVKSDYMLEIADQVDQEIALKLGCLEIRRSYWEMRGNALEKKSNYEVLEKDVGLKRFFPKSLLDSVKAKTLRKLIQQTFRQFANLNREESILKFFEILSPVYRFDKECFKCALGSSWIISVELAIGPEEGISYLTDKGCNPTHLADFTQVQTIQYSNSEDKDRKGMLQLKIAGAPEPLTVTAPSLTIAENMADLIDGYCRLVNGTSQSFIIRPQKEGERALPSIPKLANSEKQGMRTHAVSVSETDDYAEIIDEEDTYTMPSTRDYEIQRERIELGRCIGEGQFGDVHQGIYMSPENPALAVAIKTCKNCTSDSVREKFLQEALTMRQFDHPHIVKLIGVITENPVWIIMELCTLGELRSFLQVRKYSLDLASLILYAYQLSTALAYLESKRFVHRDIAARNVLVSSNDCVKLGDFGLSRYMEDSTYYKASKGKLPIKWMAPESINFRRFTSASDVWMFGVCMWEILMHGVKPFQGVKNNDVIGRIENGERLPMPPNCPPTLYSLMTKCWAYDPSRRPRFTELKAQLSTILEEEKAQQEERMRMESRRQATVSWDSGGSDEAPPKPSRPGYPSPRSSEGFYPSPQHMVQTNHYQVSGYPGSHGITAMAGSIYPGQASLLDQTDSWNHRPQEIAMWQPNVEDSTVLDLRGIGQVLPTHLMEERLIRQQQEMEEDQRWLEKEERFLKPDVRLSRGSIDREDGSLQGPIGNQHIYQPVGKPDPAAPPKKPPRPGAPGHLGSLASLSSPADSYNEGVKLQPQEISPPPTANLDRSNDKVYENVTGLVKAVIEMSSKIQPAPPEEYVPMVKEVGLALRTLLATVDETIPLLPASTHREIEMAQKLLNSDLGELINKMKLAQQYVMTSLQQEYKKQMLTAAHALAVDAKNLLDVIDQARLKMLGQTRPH
SMILES,IC50 (FAK; [2]) [nM],IC50 (SNU-668 cells) [nM],IC50 (NUGC4 cells) [nM],also measured
"C=CC(=O)N1CCC(NC(=O)c2ccc(Nc3ncc(C(F)(F)F)c(NCc4nccnc4N(C)S(C)(=O)=O)n3)c(OC)c2)CC1 [Compound 1, N-(1-acryloylpiperidin-4-yl)-3-methoxy-4-((4-(((3-(N-methylmethanesulfonylamido)pyrazin-2-yl)methyl)amino)-5-(trifluoromethyl)pyrimidin-2-yl)amino)benzamide]",1.13,,,
"C=CC(=O)N1CCC(CNC(=O)c2ccc(Nc3ncc(C(F)(F)F)c(Nc4ccccc4P(C)(C)=O)n3)cc2)CC1 [Compound 7, N-((1-acryloylpiperidin-4-yl)methyl)-4-((4-((2-(dimethylphosphoryl)phenyl)amino)-5-(trifluoromethyl)pyrimidin-2-yl)amino)benzamide]",3.58,,,
"C=CC(=O)N1CCC(CNC(=O)c2ccc(Nc3ncc(C(F)(F)F)c(Nc4ccccc4P(C)(C)=O)n3)c(OC)c2)CC1 [Compound 8, N-((1-acryloylpiperidin-4-yl)methyl)-4-((4-((2-(dimethylphosphoryl)phenyl)amino)-5-(trifluoromethyl)pyrimidin-2-yl)amino)-3-methoxybenzamide]",5.79,,,
"C=CC(=O)N1CCCC(c2cccc(NCc3ccc(Nc4ncc(C(F)(F)F)c(Nc5ccccc5P(C)(C)=O)n4)cc3)c2)C1 (stereo not shown) [Compound 10, 1-(3-(3-((4-((4-((2-(dimethylphosphoryl)phenyl)amino)-5-(trifluoromethyl)pyrimidin-2-yl)amino)benzyl)amino)phenyl)piperidin-1-yl)prop-2-en-1-one]",15.8,,,
"C=CC(=O)N1CCCC(c2cccc(NCc3ccc(Nc4ncc(C(F)(F)F)c(NCc5nccnc5N(C)S(C)(=O)=O)n4)cc3)c2)C1 (stereo not shown) [Compound 14, N-(3-(((2-((4-(((3-(1-acryloylpiperidin-3-yl)phenyl)amino)methyl)phenyl)amino)-5-(trifluoromethyl)pyrimidin-4-yl)amino)methyl)pyrazin-2-yl)-N-methylmethanesulfonamide]",4.36,,,
C=CC(=O)N1CCCC(c2cccc(NCc3ccc(Nc4ncc(Cl)c(Nc5ccccc5C(=O)NC)n4)cc3)c2)C1 (stereo not shown) [Compound 15],,110,,
"C=CC(=O)N1CCCC(c2cccc(NCc3ccc(Nc4ncc(Br)c(Nc5ccccc5C(=O)NC)n4)cc3)c2)C1 (stereo not shown) [Compound 16, 2-((2-((4-(((3-(1-acryloylpiperidin-3-yl)phenyl)amino)methyl)phenyl)amino)-5-bromopyrimidin-4-yl)amino)-N-methylbenzamide]",6.73,60,,
"C=CC(=O)N1CCCC(c2cccc(NCc3ccc(Nc4ncc(C(F)(F)F)c(Nc5ccccc5C(=O)NCC)n4)cc3)c2)C1 (stereo not shown) [Compound 17, 2-((2-((4-(((3-(1-acryloylpiperidin-3-yl)phenyl)amino)methyl)phenyl)amino)-5-(trifluoromethyl)pyrimidin-4-yl)amino)-N-ethylbenzamide]",6.13,< 10,,
"C=CC(=O)N1CCCC(c2cccc(NCc3ccc(Nc4ncc(C(F)(F)F)c(Nc5ccccc5C(=O)NC(C)C)n4)cc3)c2)C1 (stereo not shown) [Compound 18, 2-((2-((4-(((3-(1-acryloylpiperidin-3-yl)phenyl)amino)methyl)phenyl)amino)-5-(trifluoromethyl)pyrimidin-4-yl)amino)-N-isopropylbenzamide]",17.9,140,,
"C=CC(=O)N1CCCC(c2cccc(NCc3ccc(Nc4ncc(C(F)(F)F)c(Nc5cccc6c5C(=O)N(C)C6)n4)cc3)c2)C1 (stereo not shown) [Compound 20, 7-((2-((4-(((3-(1-acryloylpiperidin-3-yl)phenyl)amino)methyl)phenyl)amino)-5-(trifluoromethyl)pyrimidin-4-yl)amino)-2-methylisoindolin-1-one]",4.98,,340,
"CC#CC(=O)N1CCCC(c2cccc(NCc3ccc(Nc4ncc(C(F)(F)F)c(Nc5ccccc5C(=O)NC)n4)cc3)c2)C1 (stereo not shown) [Compound 21, 2-((2-((4-(((3-(1-(2-butynoyl)piperidin-3-yl)phenyl)amino)methyl)phenyl)amino)-5-(trifluoromethyl)pyrimidin-4-yl)amino)-N-methylbenzamide]",4.33,,40,
"C=C(C)C(=O)N1CCCC(c2cccc(NCc3ccc(Nc4ncc(C(F)(F)F)c(Nc5ccccc5C(=O)NC)n4)cc3)c2)C1 (stereo not shown) [Compound 24, 2-((2-((4-(((3-(1-methylacryloylpiperidin-3-yl)phenyl)amino)methyl)phenyl)amino)-5-(trifluoromethyl)pyrimidin-4-yl)amino)-N-methylbenzamide]",,,20,
"C=CC(=O)N1CCCC(c2cccc(NCc3ccc(Nc4ncc(C(F)(F)F)c(Nc5ccccc5S(=O)(=O)NC)n4)cc3)c2)C1 (stereo not shown) [Compound 30, 2-((2-((4-(((3-(1-acryloylpiperidin-3-yl)phenyl)amino)methyl)phenyl)amino)-5-(trifluoromethyl)pyrimidin-4-yl)amino)-N-methylbenzenesulfonamide]",3.75,90,,
C#CC(=O)N1CCCC(c2cccc(NCc3ccc(Nc4ncc(C(F)(F)F)c(Nc5ccccc5C(=O)NC)n4)cc3)c2)C1 (stereo not shown) [Compound 31],,< 10,20,
"C/C=C/C(=O)N1CCCC(c2cccc(NCc3ccc(Nc4ncc(C(F)(F)F)c(Nc5ccccc5C(=O)NC)n4)cc3)c2)C1 (stereo not shown) [Compound 32, (E)-2-((2-((4-(((3-(1-(but-2-enoyl)piperidin-3-yl)phenyl)amino)methyl)phenyl)amino)-5-(trifluoromethyl)pyrimidin-4-yl)amino)-N-methylbenzamide]",3.43,,40,
"C=C(F)C(=O)N1CCCC(c2cccc(NCc3ccc(Nc4ncc(C(F)(F)F)c(Nc5ccccc5C(=O)NC)n4)cc3)c2)C1 (stereo not shown) [Compound 33, 2-((2-((4-(((3-(1-(2-fluoroacryloyl)piperidin-3-yl)phenyl)amino)methyl)phenyl)amino)-5-(trifluoromethyl)pyrimidin-4-yl)amino)-N-methylbenzamide]",,,20,
"C=CC(=O)N1CCC[C@H](c2cccc(NCc3ccc(Nc4ncc(C(F)(F)F)c(Nc5ccccc5C(=O)NC)n4)cc3)c2)C1 [Compound 34, (R)-2-((2-((4-(((3-(1-acryloylpiperidin-3-yl)phenyl)amino)methyl)phenyl)amino)-5-(trifluoromethyl)pyrimidin-4-yl)amino)-N-methylbenzamide]",1.27,,80,
"C=CC(=O)N1CCC[C@@H](c2cccc(NCc3ccc(Nc4ncc(C(F)(F)F)c(Nc5ccccc5C(=O)NC)n4)cc3)c2)C1 [Compound 35, (S)-2-((2-((4-(((3-(1-acryloylpiperidin-3-yl)phenyl)amino)methyl)phenyl)amino)-5-(trifluoromethyl)pyrimidin-4-yl)amino)-N-methylbenzamide]",1.45,,,AUC(0-inf) ([1]; 5 mg/kg): 0.548 µM·h; AUC(0-t) ([1]; 5 mg/kg): 0.54 µM·h; Cmax ([1]; 5 mg/kg): 130 nM; Tmax ([1]; 5 mg/kg): 2.67 h; half-life ([1]; 5 mg/kg): 0.96 h
"C=CC(=O)N1CCC[C@H](c2cccc(NCc3ccc(Nc4ncc(C(F)(F)F)c(Nc5ccccc5C(=O)NOC)n4)cc3)c2)C1 [Compound 36, (R) 2-((2-((4-(((3-(1-acryloylpiperidin-3-yl)phenyl)amino)methyl)phenyl)amino)-5-(trifluoromethyl)pyrimidin-4-yl)amino)-N-methoxybenzamide]",0.97,,90,AUC(0-inf) ([1]; 3 mg/kg): 0.711 µM·h; AUC(0-t) ([1]; 3 mg/kg): 0.689 µM·h; Cmax ([1]; 3 mg/kg): 146 nM; Tmax ([1]; 3 mg/kg): 2.67 h; half-life ([1]; 3 mg/kg): 1.2 h
"C=CC(=O)N1CCC[C@@H](c2cccc(NCc3ccc(Nc4ncc(C(F)(F)F)c(Nc5ccccc5C(=O)NOC)n4)cc3)c2)C1 [Compound 37, (S) 2-((2-((4-(((3-(1-acryloylpiperidin-3-yl)phenyl)amino)methyl)phenyl)amino)-5-(trifluoromethyl)pyrimidin-4-yl)amino)-N-methoxybenzamide]",,,120,AUC(0-inf) ([1]; 3 mg/kg): 0.368 µM·h; AUC(0-t) ([1]; 3 mg/kg): 0.361 µM·h; Cmax ([1]; 3 mg/kg): 87.2 nM; Tmax ([1]; 3 mg/kg): 2.67 h; half-life ([1]; 3 mg/kg): 1.07 h; IC50 (FAK): 1.35 nM
